Data as given in ChEMBL document CHEMBL5375988, “AcGlcAs: A Novel P53-Targeting Arsenical with Potent Cellular Uptake and Cancer Cell Selectivity” (J Med Chem, 2023).
pIC50: −log10 of the molar value. Calls of active or inactive are those of the source. No cut-off for these calls is given here.

Experiments:
U-937 [1] = assay: Upregulation of p21 mRNA expression in human U-937 cells overexpressing p53-V272M mutant pretreated for 1 hr followed by culturing in fresh medium for 4 hrs by RT-qPCR analysis; format: functional, cell-based
[2] = system: Cellular tumor antigen p53 (Homo sapiens), P04637 [V272M]; assay: Restoration of p53-V272M mutant transcriptional activity on PUMA promoter in human NCI-H1299 cells at 10 uM pretreated with 20 to 40 uM N-ethylmaleimide for 30 mins followed by compound addition for 10 mins and further incubation in fresh medium for 24 hrs by firefly/renilla based luciferase reporter assay; format: cell-based
[3] = system: Cellular tumor antigen p53 (Homo sapiens), P04637 [V272M]; assay: Restoration of p53-V272M mutant transcriptional activity on PUMA promoter in human NCI-H1299 cells at 10 uM pretreated with -auranofin for 10 mins followed by compound addition for 10 mins and further incubation in fresh medium for 24 hrs by firefly/renilla based luciferase reporter assay; format: cell-based
NB-4 [4] = assay: Induction of apoptosis in human NB4 cells assessed as viable cells at 3 uM preincubated for 1 hrs followed by replacement with fresh culture medium and measured after 24 hrs by Annexin V-FITC/7AAD staining based flow cytometry assay (reference value: 94%); format: functional; conditions: read-out: Activity
[5] = target: T1, PML-RARalpha (Homo sapiens) (UniProt P10276+P29590); assay: Induction of PML/RARalpha degradation in human NB4 cells assessed as residual protein level at 9 uM incubated for 1 hrs followed by replacement with fresh culture medium and measured after 16 hrs by Western blot analysis (reference value: 1); format: cell-based
T1 sequence (P10276 whole entry, looked up): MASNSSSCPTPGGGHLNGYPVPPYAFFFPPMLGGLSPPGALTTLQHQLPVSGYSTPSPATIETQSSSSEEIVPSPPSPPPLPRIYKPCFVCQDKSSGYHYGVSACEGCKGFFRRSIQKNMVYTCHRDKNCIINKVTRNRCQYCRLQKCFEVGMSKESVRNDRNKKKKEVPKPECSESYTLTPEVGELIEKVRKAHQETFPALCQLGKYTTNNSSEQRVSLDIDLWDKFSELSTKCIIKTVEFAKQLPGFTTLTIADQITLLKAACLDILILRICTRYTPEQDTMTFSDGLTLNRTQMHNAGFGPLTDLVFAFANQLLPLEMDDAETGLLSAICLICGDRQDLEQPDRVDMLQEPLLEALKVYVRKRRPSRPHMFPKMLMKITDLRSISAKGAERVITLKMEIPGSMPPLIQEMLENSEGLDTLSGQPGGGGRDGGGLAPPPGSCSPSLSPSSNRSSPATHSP
T1 sequence (P29590 whole entry, looked up): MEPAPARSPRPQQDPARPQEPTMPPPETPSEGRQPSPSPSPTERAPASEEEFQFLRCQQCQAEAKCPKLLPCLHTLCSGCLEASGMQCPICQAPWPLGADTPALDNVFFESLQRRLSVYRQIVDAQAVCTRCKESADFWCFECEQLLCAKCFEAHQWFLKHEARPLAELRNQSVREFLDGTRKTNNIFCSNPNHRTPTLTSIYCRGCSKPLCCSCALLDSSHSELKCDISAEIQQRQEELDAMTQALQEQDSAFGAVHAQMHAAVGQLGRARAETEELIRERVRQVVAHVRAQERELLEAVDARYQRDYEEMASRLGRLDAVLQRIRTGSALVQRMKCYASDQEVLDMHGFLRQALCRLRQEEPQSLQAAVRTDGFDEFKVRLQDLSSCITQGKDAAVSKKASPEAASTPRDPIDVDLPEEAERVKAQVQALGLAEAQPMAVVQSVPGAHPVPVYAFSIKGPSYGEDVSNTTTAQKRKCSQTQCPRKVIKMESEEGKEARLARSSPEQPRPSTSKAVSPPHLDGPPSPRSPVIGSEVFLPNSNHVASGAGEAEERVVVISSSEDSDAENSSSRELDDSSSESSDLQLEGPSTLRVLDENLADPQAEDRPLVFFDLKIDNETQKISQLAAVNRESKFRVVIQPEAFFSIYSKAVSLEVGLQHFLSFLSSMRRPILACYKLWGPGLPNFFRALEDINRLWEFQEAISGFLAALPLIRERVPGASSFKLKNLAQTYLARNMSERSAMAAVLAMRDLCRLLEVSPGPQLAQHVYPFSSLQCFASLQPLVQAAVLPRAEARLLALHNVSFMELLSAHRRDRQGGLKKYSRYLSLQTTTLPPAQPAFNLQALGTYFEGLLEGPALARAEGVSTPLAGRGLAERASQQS

U-937 [6] = assay: Induction of cell cycle arrest in human U-937 cells harboring p53-V272M mutant at 0.5 to 8 uM pretreated for 1 hr followed by culturing in fresh medium for 24 hrs by RNase/PI staining based flow cytometry analysis; format: functional; conditions: dose 0.5-8 µM
[7] = target: T1, PML-RARalpha (Homo sapiens); assay: Induction of PML/RARalpha degradation in human NB4 cells assessed as downregulation of MPO mRNA expression incubated for 1 hrs followed by replacement with fresh culture medium for 6 hrs by RT-qPCR analysis; format: cell-based; conditions: dose 0.3-3 µM
NB-4 [8] = assay: Induction of granulocytic differentiation in human NB4 cells assessed as increase in CD11b expression at 9 uM incubated for 1 hrs followed by replacement with fresh culture medium for 48 hrs by flow cytometry analysis (reference value: 1.44%); format: functional
[9] = system: Cellular tumor antigen p53 (Homo sapiens), P04637 [V272M]; assay: Rescue of p53-V272M mutant transcriptional activity on PUMA promoter in human NCI-H1299 cells at 0.3 to 10 uM pretreated for 10 mins to1 hr followed by replacement with fresh culture media and measured after 24 hrs by firefly/renilla based luciferase reporter assay; format: cell-based; conditions: filed as activator, dose 0.3-10 µM, time 10-60 min
[10] = target: T1, PML-RARalpha (Homo sapiens); assay: Induction of PML/RARalpha degradation in human NB4 cells assessed as residual protein level at 0.1 uM incubated for 1 hrs followed by replacement with fresh culture medium and measured after 16 hrs by Western blot analysis (reference value: 1); format: cell-based
NB-4 [11] = assay: Induction of apoptosis in human NB4 cells assessed as necrotic cells at 27 uM preincubated for 1 hrs followed by replacement with fresh culture medium and measured after 24 hrs by Annexin V-FITC/7AAD staining based flow cytometry assay (reference value: 0.18%); format: functional
NB-4 [12] = assay: Induction of granulocytic differentiation in human NB4 cells assessed as CD11b positive cells at 3 uM incubated for 1 hrs followed by replacement with fresh culture medium for 48 hrs by flow cytometry analysis relative to control; format: functional
U-937 [13] = assay: Induction of extrinsic apoptosis in human U-937 cells overexpressing p53-V272M mutant assessed as upregulation of PERP gene expression by RT-qPCR analysis; format: functional, cell-based
U-937 [14] = assay: Cytotoxicity against p53 null human U-937 cells harboring empty vector incubated for 48 hrs by CCK-8 assay; format: functional, cell-based; conditions: U-937, 48 h
[15] = target: T1, PML-RARalpha (Homo sapiens); assay: Induction of PML/RARalpha (unknown origin) degradation overexpressed in HEK293T cells assessed as residual protein level at 2 to 6 uM incubated for 1 hrs followed by replacement with fresh culture medium and measured after 16 hrs by Western blot analysis; format: cell-based; conditions: dose 2-6 µM
U-937 [16] = assay: Antitumor activity against GFP-tagged human U-937 cells harboring p53 V272M mutant xenografted in M-NSG mouse assessed as appearance of smaller and lighter spleen at 25 mg/kg, ip administered for 9 days starting from 7 days post inoculation and measured on day 2 and 6; format: functional, organism-based; conditions: time 9.0 day
[17] = target: T1, PML-RARalpha (Homo sapiens); assay: Induction of PML/RARalpha degradation in human NB4 cells assessed as decrease in micropunctuates at 3 uM incubated for 1 hrs followed by replacement with fresh culture medium and measured after 0.5 to 24 hrs by immunofluorescence analysis; format: cell-based
[18] = system: Cellular tumor antigen p53 (Homo sapiens), P04637 [V272M]; assay: Rescue of p53-V272M mutant transcriptional activity on PUMA promoter in human NCI-H1299 cells assessed as fold change in transcriptional activity at 10 uM pretreated for 10 mins to1 hr followed by replacement with fresh culture media and measured after 24 hrs by firefly/renilla based luciferase reporter assay; format: cell-based; conditions: filed as activator, time 10-60 min
HL-60 [19] = assay: Upregulation of MDM2 mRNA expression in human HL-60 cells overexpressing p53-V272M mutant at 2 uM pretreated for 1 hr followed by culturing in fresh medium for 8 hrs by RT-qPCR analysis; format: functional, cell-based
U-937 [20] = assay: Induction of extrinsic apoptosis in human U-937 cells overexpressing p53-V272M mutant assessed as upregulation of DR5 gene expression by RT-qPCR analysis; format: functional, cell-based
U-937 [21] = assay: Induction of senescence in human U-937 cells overexpressing p53-V272M mutant assessed as upregulation of CDKN1A gene expression by RT-qPCR analysis; format: functional, cell-based
[22] = target: T1, PML-RARalpha (Homo sapiens); assay: Induction of PML/RARalpha degradation in human NB4 cells assessed as downregulation of DLK1 mRNA expression incubated for 1 hrs followed by replacement with fresh culture medium for 6 hrs by RT-qPCR analysis; format: cell-based; conditions: dose 0.3-3 µM
HL-60 [23] = assay: Upregulation of PUMA protein expression in human HL-60 cells overexpressing p53-V272M mutant pretreated for 1 hr followed by culturing in fresh medium for 16 hrs by Western blot analysis; format: functional, cell-based
HL-60 [24] = assay: Upregulation of CDKN1A mRNA expression in human HL-60 cells overexpressing p53-V272M mutant at 2 uM pretreated for 1 hr followed by culturing in fresh medium for 8 hrs by RT-qPCR analysis; format: functional, cell-based
NCI-H1299 = assay: Upregulation of PUMA mRNA expression in human NCI-H1299 cells overexpressing p53-V272M mutant at 2 uM pretreated for 1 hr followed by culturing in fresh medium for 8 hrs by RT-qPCR analysis; format: functional, cell-based
[25] = Plasma stability in dog assessed as half life at […] measured upto 120 mins by LC-MS analysis; format: ADME, cell-free, Canis lupus familiaris
[26] = Drug uptake in human HepG2 cells assessed as arsenic localization in cytoplasm at 10 uM incubated for 1 hr by ICP-MS analysis; format: ADME, cell-based; conditions: hepg2, 1 h
[27] = Toxicity in M-NSG mouse xenografted with human U-937 cells harboring p53 V272M mutant assessed as reduction in body weight at 25 mg/kg, ip administered for 11 days and measured on day 18; format: organism-based; conditions: in vivo, 432 h, time 18 day
HL-60 [28] = assay: Upregulation of MDM2 protein expression in human HL-60 cells overexpressing p53-V272M mutant pretreated for 1 hr followed by culturing in fresh medium for 16 hrs by Western blot analysis; format: functional, cell-based

Compound: CC(=O)OC[C@H]1O[C@@H](S[As]2SCCS2)[C@H](OC(C)=O)[C@@H](OC(C)=O)[C@@H]1OC(C)=O
- Activity (U-937 [1]): Active
- Activity [2]: inactive
- Activity [3]: inactive
- viability at 3 µM (NB-4 [4]): 91.1%
- Activity [5]: 0.02
- Activity (U-937 [6]): Active
- Activity [7]: Dose-Dependent Effect
- Activity (NB-4 [8]): 19%
- Activity [9]: Active
- Activity [10]: 0.55
- Activity (NB-4 [11]): 1.3%
- Activity (NB-4 [12]): 32.9%
- Activity (U-937 [13]): inactive
- pIC50 (U-937 [14]): 5.68
- Activity [15]: Active
- Activity (U-937 [16]): Active
- Activity [17]: Active
- fold change (FC) [18]: 112
- Activity (HL-60 [19]): Active
- Activity (U-937 [20]): Active
- Activity (U-937 [21]): Active
- Activity [22]: Dose-Dependent Effect
- Activity (HL-60 [23]): Active
- Activity (HL-60 [24]): Active
- Activity (NCI-H1299): Active
- half-life [25]: 3.06 min
- Drug uptake [26]: Active
- Activity [27]: Non-Toxic
- Activity (HL-60 [28]): Active
